# Results: PMC5352362, “Molecular and functional evaluation of a novel HIF inhibitor, benzopyranyl 1,2,3-triazole compound” (Oncotarget, 2016)
# Key:
# [1] = test system: hydroxylated (OH)-HIF-1α at P402 or P564, PHD2, HIF-1β; assay: Western blot of hydroxylated HIF-1α, PHD2 and HIF-1β in A549 cells; format: cell-based, human; settings: 1–100 nM, 16 h
# Experimental: Figure 4 Compound 12 increased hydroxylation and proteasome-mediated degradation of HIF-1α (A) A549 cells were treated with Compound 12 (at concentrations of 0 nM, 1 nM, 10 nM, and 100 nM) for 16 h. Cells were fixed with paraformaldehyde; an immunofluorescence assay was then performed using anti-HIF-1α antibodies and Alexa Fluor 488-labeled secondary antibodies (green). Nuclei were stained with DAPI. N, normoxia; H, hypoxia. (B) A549 cells were treated with Compound 12 (10 nM concentration) and exposed to hypoxic conditions for 16 h. Cells were immediately treated with cycloheximide (CHX, 100 μg/mL) for the time indicated, and HIF-1α protein levels were determined by western blotting. β-actin was used as an internal control. Half-life (t1/2) of HIF-1α protein was determined using relative expression levels of HIF-1α. (C) A549 cells were treated with Compound 12 (at concentrations of 0 nM, 1 nM, 10 nM, and 100 nM) for 16 h. The expression levels of HIF-1α, hydroxylated (OH)-HIF-1α at P402 or P564, and PHD2 were determined via western blotting using specific antibodies. N, normoxia; H, hypoxia. (D) A549 cells were transfected with two kinds of small interfering RNAs targeting PHD2 and then treated with Compound 12 under hypoxic exposure for 16 h. Cell lysates were immunoblotted with an anti-HIF-1α and PHD2 antibody. (E) After A549 cells were treated with Compound 12 for 16 h, cells were treated with MG132 (20 μM) for 4 h. Cell lysates were immunoprecipitated (IP) with anti-HIF-1α antibody, and were then immunoblotted (IB) with anti-ubiquitin antibody. Relative levels of ubiquitinated HIF-1α were quantified and graphed. […]
# Proteins extracted from cells using PRO-PREP (iNtRon Biotech, South Korea) were separated by SDS-PAGE and transferred to a nitrocellulose membrane (Whatman, Maidstone, UK). […] Antibody binding was detected using an enhanced chemiluminescence (ECL) kit (BioRad, Hercules, CA) according to the manufacturer's instructions. […]
# [2] = test system: HIF-1 (5xHRE-Luc reporter in HEK-293 cells); assay: Dual-luciferase HRE reporter assay under hypoxia; format: cell-based; settings: Homo sapiens, HEK293, hypoxia 1% O2, 24 h, compared to hypoxic control, read-out: inhibition of hypoxia-induced HRE Luc reporter activity (HIF-1α transactivation)
# Experimental: To identify active inhibitors of HIF-1α, a cell-based reporter assay was performed. HEK-293 cells were co-transfected with pGL3-5xHRE-Luc plasmid harboring five copies of hypoxia responsive element (HRE) from the VEGF gene promoter, and with pRL-SV40 encoding Renilla genes. The HRE-containing promoter of the HIF-1 target genes is regulated by HIF-1 activation. Transfected cells were treated with chemical compounds at 1 μM and were exposed to hypoxic conditions (1% O2) for 24 h, and then were assayed. Echinomycin (E), a well-known HIF-1α inhibitor, was used as a positive control. Compared to normoxic control conditions, hypoxia increased this luciferase reporter's activity by approximately three-fold.
# Figure 1 Screening of 144 compounds from an in-house chemical library for inhibition of HIF-1 activity HEK-293 cells were co-transfected with luciferase reporter plasmids (pGL3-HRE-luciferase) and Renilla vector (pRL-SV40). Cells were exposed to hypoxic conditions in the presence or absence of chemicals for 24 h, and were then lysed for assays of luciferase activity. […]
# HEK-293 cells were seeded onto 96-well plates at a density of 5 × 10^3 cells/well, and allowed to attach for 24 h. […] Firefly luminescence was measured using a microplate reader (Infinite M200 Pro, TECAN, Männedorf, Switzerland). […] Renilla luminescence was measured using a microplate reader. […]
structure (smiles),measurement,setting,value
"COc1ccc(-c2cn(CC3(C)C=Cc4cc([N+](=O)[O-])ccc4O3)nn2)cc1 (stereo not shown) [Compound 12, 4-(4-methoxyphenyl)-1-((2-methyl-6-nitro-2H-chromen-2-yl)methyl)-1H-1,2,3-triazole]",HIF-1β expression,[1],did not inhibit
same,PHD2 levels,[1],increased even at the lowest dose (1 nM)
same,"hydroxylation of HIF-1α (P402, P564)",[1],increased hydroxylation of HIF-1α in a dose-dependent manner
same,inhibition at 1 µM,[2],50%
